Assay results from ChEMBL document CHEMBL5252541, “Repurposing antipsychotic drugs into antifungal agents: Synergistic combinations of azoles and bromperidol derivatives in the treatment of various fungal infections” (Eur J Med Chem, 2017).
≈ marks a conversion by molar mass, not a printed value. Values belong to the compound of their own block, whether it stands above or below them.

Key:
[1] = Cytotoxicity against mouse J774.A1 cells assessed as cell survival at 8 microg/ml by XTT assay; format: toxicity, cell-based; conditions: J774.A1 cells, at 8 µg/mL, read-out: Activity
[2] = system: HEK293; test: Cytotoxicity against HEK293 cells assessed as cell survival up to 4 microg/ml by XTT assay; format: toxicity, cell-based; conditions: human, dose < 4 µg/ml
[3] = system: HEK293; test: Cytotoxicity against HEK293 cells assessed as cell survival at 4 to 16 microg/ml by XTT assay; format: toxicity, cell-based; conditions: human, dose 4-16 µg/ml
[4] = Cytotoxicity against HEK293 cells assessed as cell survival by XTT assay; format: toxicity, cell-based; conditions: human, read-out: Activity
[5] = system: Candida albicans; test: Additive antifungal activity against Candida albicans ATCC MYA-1237 assessed as fractional inhibitory concentration index measured for 72 hrs in presence of voriconazole; format: functional
[6] = system: Candida albicans; test: Antifungal activity against Candida albicans ATCC 10231 measured after 48 hrs by broth microdilution analysis; format: functional
[7] = system: Candida albicans; test: Synergistic antifungal activity against Candida albicans ATCC MYA-1237 assessed as voriconazole MIC measured after 48 hrs by checkboard based microplate reader analysis; format: functional
[8] = system: BEAS-2B; test: Cytotoxicity against human BEAS-2B cells assessed as cell survival at 4 to 16 microg/ml by XTT assay; format: toxicity, cell-based; conditions: dose 4-16 µg/ml
[9] = system: Candida albicans; test: Antifungal activity against Candida albicans ATCC 64124 measured after 48 hrs by broth microdilution analysis; format: functional
[10] = system: Candida albicans; test: Synergistic antifungal activity against Candida albicans ATCC MYA-2310 assessed as voriconazole MIC measured after 48 hrs by checkboard based microplate reader analysis; format: functional
[11] = system: J774.A1; test: Cytotoxicity against mouse J774.A1 cells assessed as cell survival up to 4 microg/ml by XTT assay; format: toxicity, cell-based; conditions: dose < 4 µg/ml
[12] = system: HEK293; test: Cytotoxicity against HEK293 cells assessed as cell survival at 8 microg/ml by XTT assay; format: toxicity, cell-based; conditions: human, dose 8 µg/ml
[13] = system: Aspergillus terreus; test: Antifungal activity against Aspergillus terreus ATCC MYA-3633 measured after 48 hrs by broth microdilution analysis; format: functional
[14] = system: Candida albicans; test: Antifungal activity against Candida albicans ATCC MYA-1003 measured after 48 hrs by broth microdilution analysis; format: functional
[15] = system: Nakaseomyces glabratus; test: Synergistic antifungal activity against Candida glabrata ATCC 2001 assessed as voriconazole MIC measured after 48 hrs by checkboard based microplate reader analysis; format: functional
[16] = system: Candida albicans; test: Antifungal activity against Candida albicans ATCC 90819 measured after 48 hrs by broth microdilution analysis; format: functional
[17] = system: Aspergillus terreus; test: Synergistic antifungal activity against Aspergillus terreus ATCC MYA-3633 assessed as voriconazole MIC measured after 48 hrs by checkboard based microplate reader analysis; format: functional
[18] = system: Candida albicans; test: microbe, parasite or virus in culture; conditions: ATCC 10231, 48 h
Description: Synergistic antifungal activity against Candida albicans ATCC 10231 assessed as voriconazole MIC measured after 48 hrs by checkboard based microplate reader analysis

[19] = system: BEAS-2B; test: Cytotoxicity against human BEAS-2B cells assessed as cell survival up to 4 microg/ml by XTT assay; format: toxicity, cell-based; conditions: dose < 4 µg/ml
[20] = system: Candida albicans; test: Antifungal activity against Candida albicans ATCC MYA-2876 measured after 48 hrs by broth microdilution analysis; format: functional
[21] = system: Candida albicans; test: Synergistic antifungal activity against Candida albicans ATCC MYA-2876 assessed as voriconazole MIC measured after 48 hrs by checkboard based microplate reader analysis; format: functional
[22] = system: Candida albicans; test: microbe, parasite or virus in culture; conditions: ATCC 64124, 48 h
Description: Synergistic antifungal activity against Candida albicans ATCC 64124 assessed as voriconazole MIC measured after 48 hrs by checkboard based microplate reader analysis

[23] = system: Candida albicans; test: Synergistic antifungal activity against Candida albicans ATCC MYA-1003 assessed as voriconazole MIC measured after 48 hrs by checkboard based microplate reader analysis; format: functional
[24] = system: J774.A1; test: Cytotoxicity against mouse J774.A1 cells assessed as cell survival at 4 to 16 microg/ml by XTT assay; format: toxicity, cell-based; conditions: dose 4-16 µg/ml
[25] = system: Candida albicans; test: Antifungal activity against Candida albicans ATCC MYA-1237 measured after 48 hrs by broth microdilution analysis; format: functional
[26] = Cytotoxicity against human BEAS-2B cells assessed as cell survival by XTT assay; format: toxicity, cell-based; conditions: read-out: Activity
[27] = system: Candida albicans; test: microbe, parasite or virus in culture; conditions: ATCC 90819, 48 h
Description: Synergistic antifungal activity against Candida albicans ATCC 90819 assessed as voriconazole MIC measured after 48 hrs by checkboard based microplate reader analysis

[28] = Cytotoxicity against mouse J774.A1 cells assessed as cell survival by XTT assay; format: toxicity, cell-based; conditions: read-out: Activity
[29] = system: Nakaseomyces glabratus; test: Antifungal activity against Candida glabrata ATCC 2001 measured after 48 hrs by broth microdilution analysis; format: functional
[30] = system: Candida albicans; test: Additive antifungal activity against Candida albicans ATCC MYA-2876 assessed as fractional inhibitory concentration index measured for 72 hrs in presence of posaconazole; format: functional
[31] = system: Candida albicans; test: Additive antifungal activity against Candida albicans ATCC 90819 assessed as fractional inhibitory concentration index measured for 72 hrs in presence of posaconazole; format: functional
[32] = system: Candida albicans; test: Synergistic antifungal activity against Candida albicans ATCC 10231 assessed as compound MIC measured after 48 hrs in presence of fluconazole by checkboard based microplate reader analysis; format: functional
[33] = system: Candida albicans; test: Synergistic antifungal activity against Candida albicans ATCC 10231 assessed as compound MIC measured after 48 hrs in presence of itraconazole by checkboard based microplate reader analysis; format: functional
[34] = system: Candida albicans; test: Additive antifungal activity against Candida albicans ATCC MYA-2310 assessed as fractional inhibitory concentration index measured for 72 hrs in presence of posaconazole; format: functional
[35] = system: Candida albicans; test: Additive antifungal activity against Candida albicans ATCC 64124 assessed as fractional inhibitory concentration index measured for 72 hrs in presence of itraconazole; format: functional
[36] = system: Nakaseomyces glabratus; test: Synergistic antifungal activity against Candida glabrata ATCC 2001 assessed as fractional inhibitory concentration index measured for 72 hrs in presence of posaconazole; format: functional
[37] = system: Candida albicans; test: Potency index, ratio of fluconazole MIC to test compound MIC for antifungal activity against Candida albicans ATCC 10231 measured after 48 hrs by broth microdilution analysis; format: functional
[38] = system: Candida albicans; test: Additive antifungal activity against Candida albicans ATCC 90819 assessed as fractional inhibitory concentration index measured for 72 hrs in presence of voriconazole; format: functional
[39] = system: Candida albicans; test: Synergistic antifungal activity against Candida albicans ATCC 64124 assessed as compound MIC measured after 48 hrs in presence of voriconazole by checkboard based microplate reader analysis; format: functional
[40] = system: Candida albicans; test: Synergistic antifungal activity against Candida albicans ATCC 10231 assessed as compound MIC measured after 48 hrs in presence of ketoconazole by checkboard based microplate reader analysis; format: functional
[41] = system: Aspergillus terreus; test: Additive antifungal activity against Aspergillus terreus ATCC MYA-3633 assessed as fractional inhibitory concentration index measured for 72 hrs in presence of voriconazole; format: functional
[42] = system: Candida albicans; test: Additive antifungal activity against Candida albicans ATCC MYA-2310 assessed as fractional inhibitory concentration index measured for 72 hrs in presence of voriconazole; format: functional
[43] = system: Candida albicans; test: Synergistic antifungal activity against Candida albicans ATCC 64124 assessed as fractional inhibitory concentration index measured for 72 hrs in presence of posaconazole; format: functional
[44] = system: Candida albicans; test: Synergistic antifungal activity against Candida albicans ATCC 64124 assessed as compound MIC measured after 48 hrs in presence of fluconazole by checkboard based microplate reader analysis; format: functional
[45] = system: Candida albicans; test: Additive antifungal activity against Candida albicans ATCC 64124 assessed as fractional inhibitory concentration index measured for 72 hrs in presence of ketoconazole; format: functional
[46] = system: Nakaseomyces glabratus; test: Additive antifungal activity against Candida glabrata ATCC 2001 assessed as fractional inhibitory concentration index measured for 72 hrs in presence of posaconazole; format: functional
[47] = system: Candida albicans; test: Additive antifungal activity against Candida albicans ATCC MYA-1237 assessed as fractional inhibitory concentration index measured for 72 hrs in presence of posaconazole; format: functional
[48] = system: Candida albicans; test: Synergistic antifungal activity against Candida albicans ATCC 10231 assessed as compound MIC measured after 48 hrs in presence of posaconazole by checkboard based microplate reader analysis; format: functional
[49] = system: Nakaseomyces glabratus; test: Additive antifungal activity against Candida glabrata ATCC 2001 assessed as fractional inhibitory concentration index measured for 72 hrs in presence of voriconazole; format: functional
[50] = system: Candida albicans; test: Additive antifungal activity against Candida albicans ATCC 10231 assessed as fractional inhibitory concentration index measured for 72 hrs in presence of ketoconazole; format: functional
[51] = system: Candida albicans; test: Antifungal activity against Candida albicans ATCC MYA-2310 measured after 48 hrs by broth microdilution analysis; format: functional
[52] = system: Candida albicans; test: Additive antifungal activity against Candida albicans MYA-1003 assessed as fractional inhibitory concentration index measured for 72 hrs in presence of voriconazole
[53] = system: Candida albicans; test: Synergistic antifungal activity against Candida albicans ATCC 64124 assessed as compound MIC measured after 48 hrs in presence of ketoconazole by checkboard based microplate reader analysis; format: functional
[54] = system: Candida albicans; test: Synergistic antifungal activity against Candida albicans ATCC 64124 assessed as compound MIC measured after 48 hrs in presence of posaconazole by checkboard based microplate reader analysis; format: functional
[55] = system: Candida albicans; test: Additive antifungal activity against Candida albicans ATCC MYA-2876 assessed as fractional inhibitory concentration index measured for 72 hrs in presence of voriconazole; format: functional
[56] = system: Candida albicans; test: Synergistic antifungal activity against Candida albicans ATCC 10231 assessed as compound MIC measured after 48 hrs in presence of voriconazole by checkboard based microplate reader analysis; format: functional
[57] = system: Candida albicans; test: Additive antifungal activity against Candida albicans ATCC 10231 assessed as fractional inhibitory concentration index measured for 72 hrs in presence of fluconazole; format: functional
[58] = system: Candida albicans; test: Synergistic antifungal activity against Candida albicans ATCC 64124 assessed as compound MIC measured after 48 hrs in presence of itraconazole by checkboard based microplate reader analysis; format: functional
[59] = system: Candida albicans; test: Additive antifungal activity against Candida albicans ATCC 10231 assessed as fractional inhibitory concentration index measured for 72 hrs in presence of itraconazole; format: functional
[60] = system: Candida albicans; test: Additive antifungal activity against Candida albicans ATCC 64124 assessed as fractional inhibitory concentration index measured for 72 hrs in presence of fluconazole; format: functional
[61] = system: Candida albicans; test: Partial synergistic antifungal activity against Candida albicans ATCC 10231 assessed as fractional inhibitory concentration index measured for 72 hrs in presence of voriconazole; format: functional
[62] = system: Candida albicans; test: Additive antifungal activity against Candida albicans ATCC 64124 assessed as fractional inhibitory concentration index measured for 72 hrs in presence of voriconazole; format: functional

Compound: C[C@@H](c1ncncc1F)[C@](O)(Cn1cncn1)c1ccc(F)cc1F [VORICONAZOLE]
viability at 8 microg/ml [1]: 100%
Activity [2]: Non-Toxic
Activity [3]: Non-Toxic
viability [4]: > 100%
fractional inhibitory concentration index (FICI) [5]: 2
MIC [6]: 1 µg/mL (≈ 2.86 µM)
MIC [7]: > 32 µg/mL
Activity [8]: Non-Toxic
MIC [9]: > 32 µg/mL
MIC [10]: > 32 µg/mL
Activity [11]: Non-Toxic
Activity [12]: Non-Toxic
MIC [13]: 0.25 µg/mL (≈ 0.716 µM)
MIC [14]: > 32 µg/mL
MIC [15]: > 32 µg/mL
MIC [16]: > 32 µg/mL
MIC [17]: 0.5 µg/mL
MIC [18]: 0.25 µg/mL (≈ 0.716 µM)
Activity [19]: Non-Toxic
MIC [20]: > 32 µg/mL
MIC [21]: > 32 µg/mL
MIC [22]: 4 µg/mL (≈ 11.5 µM)
MIC [23]: 2 µg/mL
Activity [24]: Non-Toxic
MIC [25]: > 32 µg/mL
viability [26]: > 100%
MIC [27]: 0.25 µg/mL (≈ 0.716 µM)
viability [28]: > 100%
MIC [29]: > 32 µg/mL

MIC [32]: > 128 µg/mL
MIC [33]: > 128 µg/mL
MIC [6]: > 128 µg/mL
MIC [39]: 128 µg/mL
MIC [40]: > 128 µg/mL
MIC [44]: > 128 µg/mL
MIC [9]: > 128 µg/mL
MIC [48]: > 128 µg/mL
MIC [13]: > 128 µg/mL
MIC [14]: > 128 µg/mL
MIC [51]: > 128 µg/mL
MIC [16]: > 128 µg/mL
MIC [53]: 64 µg/mL
MIC [54]: 8 µg/mL
MIC [56]: 32 µg/mL
MIC [20]: > 128 µg/mL
MIC [58]: > 128 µg/mL
MIC [25]: > 128 µg/mL
MIC [29]: > 128 µg/mL
Compound: COc1ccc(C(=O)CCCN2CCC(O)(c3ccc(Br)cc3)CC2)cc1
fractional inhibitory concentration index (FICI) [30]: 2
fractional inhibitory concentration index (FICI) [31]: 2
fractional inhibitory concentration index (FICI) [34]: 2
fractional inhibitory concentration index (FICI) [35]: 2
fractional inhibitory concentration index (FICI) [36]: 0.51
fractional inhibitory concentration index (FICI) [5]: 2
Ratio [37]: 16
fractional inhibitory concentration index (FICI) [38]: 2
fractional inhibitory concentration index (FICI) [41]: 2
fractional inhibitory concentration index (FICI) [42]: 2
fractional inhibitory concentration index (FICI) [43]: 0.13
fractional inhibitory concentration index (FICI) [45]: 1
fractional inhibitory concentration index (FICI) [46]: 0.5
fractional inhibitory concentration index (FICI) [47]: 2
fractional inhibitory concentration index (FICI) [49]: 2
fractional inhibitory concentration index (FICI) [50]: 2
fractional inhibitory concentration index (FICI) [52]: 2
fractional inhibitory concentration index (FICI) [55]: 2
fractional inhibitory concentration index (FICI) [57]: 2
fractional inhibitory concentration index (FICI) [59]: 2
fractional inhibitory concentration index (FICI) [60]: 2
fractional inhibitory concentration index (FICI) [61]: 0.75
fractional inhibitory concentration index (FICI) [62]: 1.25
